In US12186317B2, “Inhibitors of alpha-amino-beta-carboxymuconic acid semialdehyde decarboxylase” (TES Pharma S.r.l., priority 2018, dated 2025) one finds IC50 data, which are given here for 38 molecules.

Bounds are passed on as bounds.

The target in this assay is T1, hACMSD (ACMSD1) (Homo sapiens, UniProt Q8TDX5).
T1 construct: made in house; host or cells: Pichia pastoris
T1 sequence (Q8TDX5 whole entry): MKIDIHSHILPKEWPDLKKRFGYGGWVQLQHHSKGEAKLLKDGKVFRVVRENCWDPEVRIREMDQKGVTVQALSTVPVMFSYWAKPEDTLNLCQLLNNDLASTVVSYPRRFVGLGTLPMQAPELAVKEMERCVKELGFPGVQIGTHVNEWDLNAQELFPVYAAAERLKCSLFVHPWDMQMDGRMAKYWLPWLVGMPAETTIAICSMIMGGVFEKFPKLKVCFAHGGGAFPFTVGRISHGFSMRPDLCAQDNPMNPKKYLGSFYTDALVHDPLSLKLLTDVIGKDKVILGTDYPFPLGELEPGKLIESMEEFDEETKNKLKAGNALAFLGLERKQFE
The assay can be described thus: Determination of ACMSD1 inhibition, spectrophotometrical in vitro assay (conversion of 3OH-anthranilic acid into ACMS). It counts as biochemical. The following applies: HAA concentration of 10 μM; recombinant ACMSD1 from Pichia pastoris; 25° C.; absorbance at 360 nm. The protocol: The activity of compounds as inhibitors of ACMSD1 is determined in a spectrophotometrical in vitro assay. The pre-assay mixture is incubated and a compound of Formula (I) or (II), or a pharmaceutically acceptable salt thereof, and ACMSD1 solution is then added. The effect of ACMS concentration on the enzyme activity is investigated by varying 3-hydroxyanthranilic acid (30H-HA) concentration in the pre-assay mixture. Kinetic parameters are calculated from the initial velocity data using a Lineweaver-Burk plot.
The pre-assay mixture consisting of 3-hydroxyanthranilic acid (30H-HA), 3-hydroxyanthranilic acid, 3,4-diOxygenase (HAO), and a dialyzed crude extract of E. coli BL21 (DE3) cells expressing the recombinant enzyme, was incubated at 25° C. with monitoring of the increase in absorbance at 360 nm due to the formation of ACMS from 30H-HA. After the reaction was completed within ˜2 mins, an aliquot of ACMSD1 solution (prepared and purified from Pichia pastoris overexpressing the recombinant enzyme) was added, and the decrease in absorbance at 360 nm was followed at 15 second intervals. The effect of ACMS concentration on the enzyme activity was investigated by varying 30H-HA concentration from 2 to 20 μM. Kinetic parameters were calculated from the initial velocity data by using the Lineweaver-Burk plot.
The rate of the decrease in absorbance caused by ACMSD1 was calculated by subtracting that of the control reaction mixture without ACMSD from that described above. One unit of ACMSD activity was indicated as the amount of enzyme that converts 1 mmol of ACMS per minute at 25° C.
The enzymatic activity was determined at a HAA concentration of 10 μM in the presence of the compounds in Table 1 below. […] In Table 1, A is <0.1 μM; B is 0.1 to 1 μM; C is 1 to 10 μM; and D is >10 μM.
What is called IC50 is the concentration needed to halve the response being measured. For the molecule `N#Cc1c(N)nc(SCc2cccc(CC(=O)O)c2)nc1-c1cccs1` [I-7, [3-(4-Amino-5-cyano-6-thiophen-2-yl-pyrimidin-2-ylsulfanylmethyl)-phenyl]-acetic acid], the IC50 fell in the range of 100 to 1000 nM.

As to `N#Cc1c(-c2cccs2)nc(SCc2cccc(-c3nn[nH]n3)c2)[nH]c1=O` [I-43], the IC50 was less than 100 nM.

As to `N#Cc1c(-c2cccs2)nc(NCc2ccc(-c3nnn[nH]3)cc2)[nH]c1=O` [I-51], the IC50 is 100 to 1000 nM.

Consider `N#Cc1c(-c2cccs2)nc(SCc2cc(F)c(O)c(F)c2)[nH]c1=O` [I-39, 2-(3,5-Difluoro-4-hydroxy-benzylsulfanyl)-6-oxo-4-thiophen-2-yl-1,6-dihydro-pyrimidine-5-carbonitrile], for which the IC50 was in the range of 1000 to 10000 nM.

Consider `N#Cc1cccc(CSc2nc(-c3cccs3)c(C#N)c(=O)[nH]2)c1` [I-11, 2-(3-Cyano-benzylsulfanyl)-6-oxo-4-thiophen-2-yl-1,6-dihydro-pyrimidine-5-carbonitrile], for which the IC50 fell in the range of 1000 to 10000 nM.

As to `N#Cc1c(-c2cccs2)nc(SCC(=O)O)[nH]c1=O` [I-24, (5-Cyano-6-oxo-4-thiophen-2-yl-1,6-dihydro-pyrimidin-2-ylsulfanyl)-acetic acid], the IC50 is 1000 to 10000 nM.

Regarding `N#Cc1c(SCc2cccc(CC(=O)O)c2)[nH]c(=O)c(C#N)c1-c1cccs1` [I-21, [3-(3,5-Dicyano-6-oxo-4-thiophen-2-yl-1,6-dihydro-pyridin-2-ylsulfanylmethyl)-phenyl]-acetic acid], the IC50 was less than 100 nM.

With `CNc1nc(SCc2cccc(C(=O)O)c2)nc(-c2cccs2)c1C#N` [I-10, 3-(5-Cyano-4-methylamino-6-thiophen-2-yl-pyrimidin-2-ylsulfanylmethyl)-benzoic acid], the IC50 is 1000 to 10000 nM.

As for `N#Cc1c(NC2CC2)nc(SCc2cccc(CC(=O)O)c2)nc1-c1cccs1` [I-6, [3-(5-Cyano-4-cyclopropylamino-6-thiophen-2-yl-pyrimidin-2-ylsulfanylmethyl)-phenyl]-acetic acid], the IC50 fell in the range of 1000 to 10000 nM.

With `N#Cc1c(Cc2ccccc2)nc(SCc2cccc(CC(=O)O)c2)[nH]c1=O` [I-33, [3-(4-Benzyl-5-cyano-6-oxo-1,6-dihydro-pyrimidin-2-ylsulfanylmethyl)-phenyl]-acetic acid], the IC50 was less than 100 nM.

Regarding `N#Cc1c(-c2cccs2)cc(=O)[nH]c1SCc1cccc(CC(=O)O)c1` [I-20, [3-(3-Cyano-6-oxo-4-thiophen-2-yl-1,6-dihydro-pyridin-2-ylsulfanylmethyl)-phenyl]-acetic acid], the IC50 was less than 100 nM.

As for `N#Cc1c(Cc2ccccc2)nc(SCc2cccc(-c3nnn[nH]3)c2)[nH]c1=O` [I-34, 4-Benzyl-6-oxo-2-[3-(1H-tetrazol-5-yl)-benzylsulfanyl]-1,6-dihydro-pyrimidine-5 carbonitrile], the IC50 was less than 100 nM.

In the case of `N#Cc1c(SCc2cccc(-c3nnn[nH]3)c2)[nH]c(=O)c(C#N)c1-c1cccs1` [I-22, 2-Oxo-6-[3-(1H-tetrazol-5-yl)-benzylsulfanyl]-4-thiophen-2-yl-1,2-dihydro-pyridine-3,5-dicarbonitrile], the IC50 is less than 100 nM.

Turning to `N#Cc1c(-c2cccs2)nc(SCc2nnn[nH]2)[nH]c1=O` [I-25, 6-Oxo-2-(1H-tetrazol-5-ylmethylsulfanyl)-4-thiophen-2-yl-1,6-dihydro-pyrimidine-5-carbonitrile], the IC50 was less than 100 nM.

Regarding `N#Cc1c(Cc2ccccc2)nc(SCc2cc(F)c(O)c(F)c2)[nH]c1=O` [I-41, 4-Benzyl-2-(3,5-difluoro-4-hydroxy-benzylsulfanyl)-6-oxo-1,6-dihydro-pyrimidine-5-carbonitrile], the IC50 is 1000 to 10000 nM.

For the molecule `N#Cc1c(Br)nc(SCc2cccc(CC(=O)O)c2)nc1-c1cccs1` [I-5, [3-(4-Bromo-5-cyano-6-thiophen-2-yl-pyrimidin-2-ylsulfanylmethyl)-phenyl]-acetic acid], the IC50 was in the range of 100 to 1000 nM.

Turning to `N#Cc1c(-c2cccs2)nc(NCc2cccc(Cc3nnn[nH]3)c2)[nH]c1=O` [I-49], the IC50 is less than 100 nM.

With `O=c1cc(C(F)(F)F)nc(SCc2nnn[nH]2)[nH]1` [I-26, 2-(1H-Tetrazol-5-ylmethylsulfanyl)-6-trifluoromethyl-3H-pyrimidin-4-one], the IC50 was less than 100 nM.

Consider `CCOC(=O)Cc1cccc(CSc2nc(=O)c(C#N)c(-c3cccs3)n2C)c1` [I-17, [3-(5-Cyano-1-methyl-4-oxo-6-thiophen-2-yl-1,4-dihydro-pyrimidin-2-ylsulfanylmethyl)-phenyl]-acetic acid ethyl ester], for which the IC50 was more than 10000 nM.

For the molecule `N#Cc1c(-c2cccs2)nc(NCc2cccc(CC(=O)O)c2)[nH]c1=O` [I-50], the IC50 was in the range of 1000 to 10000 nM.

As for `N#Cc1c(-c2ccccc2)cc(=O)[nH]c1SCc1cccc(CC(=O)O)c1` [I-19, [3-(3-Cyano-6-oxo-4-phenyl-1,6-dihydro-pyridin-2-ylsulfanylmethyl)-phenyl]-acetic acid], the IC50 was less than 100 nM.

As for `N#Cc1c(-c2cccs2)nc(SCc2cccc(CCO)c2)[nH]c1=O` [I-12, 2-[3-(2-Hydroxy-ethyl)-benzylsulfanyl]-6-oxo-4-thiophen-2-yl-1,6-dihydropyrimidine-5-carbonitrile], the IC50 lay within 1000 to 10000 nM.

With `N#Cc1c(-c2cccs2)nc(SCc2cccc(S(N)(=O)=O)c2)[nH]c1=O` [I-18, 3-(5-Cyano-6-oxo-4-thiophen-2-yl-1,6-dihydro-pyrimidin-2-ylsulfanylmethyl)-benzenesulfonamide], the IC50 lay in the range of 100 to 1000 nM.

Regarding `CCOC(=O)Cc1cccc(CSc2nc(-c3cccs3)c(C#N)c(=O)[nH]2)c1` [I-1, [3-(5-Cyano-6-oxo-4-thiophen-2-yl-1,6-dihydro-pyrimidin-2-ylsulfanylmethyl)-phenyl]-acetic acid ethyl ester], the 50% inhibitory concentration (IC50) fell in the range of 1000 to 10000 nM.

On to `N#Cc1c(Cc2ccccc2)cc(=O)[nH]c1SCc1cccc(CC(=O)O)c1` [I-23, [3-(4-Benzyl-3-cyano-6-oxo-1,6-dihydro-pyridin-2-ylsulfanylmethyl)-phenyl]-acetic acid], for which the IC50 fell in the range of 1000 to 10000 nM.

In the case of `N#Cc1c(-c2cccs2)nc(SCc2cccc(-c3cc(F)c(O)c(F)c3)c2)[nH]c1=O` [I-3, 2-({[3-(3,5-difluoro-4-hydroxyphenyl)phenyl]methyl}sulfanyl)-6-oxo-4-(thiophen-2-yl)-1,6-dihydropyrimidine-5-carbonitrile], the IC50 is less than 100 nM.

Regarding `N#Cc1cnc(SCc2cccc(CC(=O)O)c2)nc1-c1cccs1` [I-8, [3-(5-Cyano-6-thiophen-2-yl-pyrimidin-2-ylsulfanylmethyl)-phenyl]-acetic acid], the IC50 was 100 to 1000 nM.

Consider `N#Cc1c(Cc2ccccc2)nc(SCc2nnn[nH]2)[nH]c1=O` [I-32], for which the IC50 was less than 100 nM.

As to `N#Cc1c(-c2cccs2)nc(SCc2cccc(CC(=O)O)c2)nc1N1CCOCC1` [I-15, [3-(5-Cyano-4-morpholin-4-yl-6-thiophen-2-yl-pyrimidin-2-ylsulfanylmethyl)-phenyl]-acetic acid], the IC50 lay within 1000 to 10000 nM.

With `N#Cc1c(-c2cccs2)nc(SCCC(=O)O)[nH]c1=O` [I-37], the IC50 lay in the range of 1000 to 10000 nM.

`N#Cc1c(-c2cccs2)nc(SCc2cccc(C(N)=O)c2)[nH]c1=O` [I-2, 3-(5-Cyano-6-oxo-4-thiophen-2-yl-1,6-dihydro-pyrimidin-2-ylsulfanylmethyl)-benzamide]: the IC50 is 100 to 1000 nM.

As to `O=C(O)Cc1cccc(CSc2nc(C(F)(F)F)cc(=O)[nH]2)c1` [I-28, [3-(6-Oxo-4-trifluoromethyl-1,6-dihydro-pyrimidin-2-ylsulfanylmethyl)-phenyl]-acetic acid], the IC50 fell in the range of 100 to 1000 nM.

As for `N#Cc1c(Cc2ccccc2)nc(SCc2cccc(C(=O)O)c2)[nH]c1=O` [I-35, 3-(4-Benzyl-5-cyano-6-oxo-1,6-dihydro-pyrimidin-2-ylsulfanylmethyl)-benzoic acid], the IC50 is 100 to 1000 nM.

Regarding `COc1nc(SCc2cccc(CC(=O)O)c2)nc(-c2cccs2)c1C#N` [I-4, [3-(5-Cyano-4-methoxy-6-thiophen-2-yl-pyrimidin-2-ylsulfanylmethyl)-phenyl]-acetic acid], the IC50 was 1000 to 10000 nM.

Turning to `O=C(O)CSc1nc(C(F)(F)F)cc(=O)[nH]1` [I-27, (6-Oxo-4-trifluoromethyl-1,6-dihydro-pyrimidin-2-ylsulfanyl)-acetic acid], the IC50 is 100 to 1000 nM.

For `N#Cc1c(-c2cccs2)nc(NCc2cccc(C(=O)O)c2)[nH]c1=O` [I-48], the IC50 fell in the range of 1000 to 10000 nM.

On to `N#CCc1cccc(CSc2nc(-c3cccs3)c(C#N)c(=O)[nH]2)c1` [I-13, 2-(3-Cyanomethyl-benzylsulfanyl)-6-oxo-4-thiophen-2-yl-1,6-dihydro-pyrimidine-5-carbonitrile], for which the IC50 lay within 1000 to 10000 nM.

Turning to `O=C(O)c1cccc(CSc2nc(C(F)(F)F)cc(=O)[nH]2)c1` [I-31, 3-(6-Oxo-4-trifluoromethyl-1,6-dihydro-pyrimidin-2-ylsulfanylmethyl)-benzoic acid], the IC50 lay within 1000 to 10000 nM.
